# Measured values: patent US6660910B1, “Selection marker” (Syngenta Mogen B.V., priority 1997, dated 2003)
# Experiments:
# BMS cells = assay: Maize killing curve; type: cell-based; details: for Observations (light microscope) / % dead cells (light microscope): Day 15; for % dead cells (light microscope): clumps of cells
# Experimental: Stock solutions of cyanamide were prepared in water at 10 and 100 mg/ml and filter sterilised. Aliquots were stored at −20° C. Media were prepared by adding MS medium (4.4 g), sucrose (20 g), 2,4-D (2.0 mg) and agar (8 g) to 1 litre of water. […] BMS liquid was prepared as above minus agar. BMS cells were added to media containing cyanamide in three ways:
# a. BMS cell suspension added to falcon tube and liquid removed. Then the BMS cells were arranged on the surface of the agar in clumps of approximately 5 mm in diameter, 5 clumps per plate, 3 plates per concentration, while on the base of each petri dish the outline of each clump was marked;
# b. Approximately 0.5 ml pack cell volume plus 1.5 ml BMS liquid added to surface of agar and the cells were spread finely over surface of agar. Three plates per treatment were set up.
# c. Approximately 0.5 ml pack cell volume plus 1.5 ml BMS liquid were added to filter paper overlying agar. Cells were spread evenly over surface of filter. One plate per treatment was set up.
# The plates were sealed with micropore tape and incubated at 25° C. in the dark. […]
# Samples were taken from the clumps of cells on all levels of cyanamide for observation under a light microscope. With increasing levels of cyanamide there were increasing numbers of dead cells where the cell contents had shrunk away from the cell wall, and an increase in the number of dark bodied starch grains. Cells were observed resuspended in water and with FDA stain under UV light.
# [1] = test system: root segments of Arabidopsis thaliana cv. C24; assay: Arabidopsis root transformation with selection on cyanamide or kanamycin; type: cell-based
# Experimental: Described below is the method used for transformation of root segments of Arabidopsis thaliana cv. C24 using Agrobacterium tumefaciens. The binary vectors for this transformation method are identical to those described above.
# Six mg of Arabidopsis seeds were germinated in a flask containing liquid Germination Medium (GM) under 16 h light period (1700 lux) at 24° C. and a 8 h dark period at 21° C. at 80 rpm. (The contents of various media can be found in Table 4). Roots of 9 days old seedlings were isolated in a sterile petridish and collected in a drop of Germination Medium (GM). Roots were cut in segments of approximately 3-5 mm and approximately 100 explants were spread evenly on a nylon membrane (O 8 cm) which was placed on plates containing Callus Inducing Medium (CIM). The plates were incubated 3 days under the same conditions as described above.
# The Agrobacterium strain used in this study harbored a rifampicin selection marker in a C 58 chromosomal background. The construction of the helper strain MOG101 is described by Hood et al. (1993).
# Agrobacteria were grown overnight in LB medium with antibiotics (rifampicin 20 mg/l, kanamycin 100 mg/l). The overnight culture was diluted 1:10 in LB without antibiotics and grown for approximately 3 hours. Bacterial suspensions were centrifuged at 1600×g for 15 minutes at room temperature. Bacteria were resuspended in GM and adjusted to OD600=0.1 and used for cocultivation.
# The membrane containing approximately 100 explants was incubated for 2 minutes with the Agrobacterium suspension and dried on sterile filter paper to remove excess of bacteria. The membrane with explants are cultured for 48 h on CIM plates. After rinsing the membrane and explants with liquid GM these were incubated on Shoot Induction Medium (SIM) plates containing several concentrations of cyanamide or kanamycin. After 5 days the membrane with the explants was transferred to the same medium (SIM) for subculture. The second subculture was after 2 weeks. Approximately four weeks after cocultivation 60 shoots per cyanamide concentration were excised and placed on plates with Shoot Elongation Medium (SEM) containing 30 mg/l cyanamide. Shoots which were able to root are tested on their transgenic character by testing leaflets and flowers for expression of the gus gene using a histochemical GUS assay.
# Three experiments were performed. Shoots obtained from Exp. 98-8 and 98-11 were transferred to rooting medium (SEM) containing 30 mg/litre cyanamide. Shoots obtained from Exp. 98-13 were transferred to rooting medium containing the same concentration as the selection medium (SIM), for results see Table 4a. The shoots obtained from the kanamycin selection (50 mg/litre) were transferred to rooting medium containing 25 mg/litre Kanamycin.
# [2] = pMOG 1156, Experiment 98-8, selection cyanamide 20 mg/litre, rooting medium 30 mg/litre cyanamide
# [3] = pMOG 1156, Experiment 98-8, selection cyanamide 30 mg/litre, rooting medium 30 mg/litre cyanamide
# [4] = pMOG 1156, Experiment 98-8, selection cyanamide 40 mg/litre, rooting medium 30 mg/litre cyanamide
# [5] = pMOG 1156, Experiment 98-8, selection cyanamide 60 mg/litre, rooting medium 30 mg/litre cyanamide
# [6] = pMOG 1156, Experiment 98-8, selection cyanamide 80 mg/litre, rooting medium 30 mg/litre cyanamide
# [7] = pMOG 1156, Experiment 98-11, selection cyanamide 20 mg/litre, rooting medium 30 mg/litre cyanamide
# [8] = pMOG 1156, Experiment 98-11, selection cyanamide 30 mg/litre, rooting medium 30 mg/litre cyanamide
# [9] = pMOG 1156, Experiment 98-11, selection cyanamide 40 mg/litre, rooting medium 30 mg/litre cyanamide
# [10] = pMOG 1156, Experiment 98-11, selection cyanamide 50 mg/litre, rooting medium 30 mg/litre cyanamide
# [11] = pMOG 1156, Experiment 98-11, selection cyanamide 80 mg/litre, rooting medium 30 mg/litre cyanamide
# [12] = pMOG 1156, Experiment 98-13, selection cyanamide 20 mg/litre, rooting medium same concentration as selection medium
# [13] = pMOG 1156, Experiment 98-13, selection cyanamide 30 mg/litre, rooting medium same concentration as selection medium
# [14] = pMOG 1156, Experiment 98-13, selection cyanamide 50 mg/litre, rooting medium same concentration as selection medium
# [15] = pMOG 1156, Experiment 98-13, selection cyanamide 60 mg/litre, rooting medium same concentration as selection medium
# [16] = pMOG 1156, Experiment 98-13, selection cyanamide 80 mg/litre, rooting medium same concentration as selection medium
# [17] = pMOG 1156, Experiment 98-8, selection kanamycin 50 mg/litre, rooting medium 25 mg/litre Kanamycin
# [18] = pMOG 1156, Experiment 98-11, selection kanamycin 50 mg/litre, rooting medium 25 mg/litre Kanamycin
# [19] = pMOG 1156, Experiment 98-13, selection kanamycin 50 mg/litre, rooting medium 25 mg/litre Kanamycin
smiles,measurement,setting,value
N#CN [Cyanamide],Observations (light microscope),BMS cells; 10 mg/l,Signs of stress.
same,% dead cells (light microscope),BMS cells; 10 mg/l,Approx 5% dead.
same,Growth of BMS cells,"BMS cells; 10 mg/l, after 15 days",reduction in growth of BMS cells on 10 mg/l was still very clear
same,Observations (light microscope),BMS cells; 30 mg/l,Striking differences from control cells.
same,% dead cells (light microscope),BMS cells; 30 mg/l,Approx 15-20% dead.
same,Growth of BMS cells,"BMS cells; 50 mg/l plus, after 15 days",showed no signs of growth
same,Observations (light microscope),BMS cells; 50 mg/l,Increasing number of dead cells and accumulation of starch
same,% dead cells (light microscope),BMS cells; 50 mg/l,Approx 50% dead.
same,Observations (light microscope),BMS cells; 100 mg/l,Majority of cell dead.
same,% dead cells (light microscope),BMS cells; 100 mg/l,Approx 90% dead.
same,Observations (light microscope),BMS cells; 150 mg/l,Majority of cells dead.
same,% dead cells (light microscope),BMS cells; 150 mg/l,Approx 95-98% dead.
same,Colour of BMS cells,"BMS cells; all levels of cyanamide, after 8 days",no browning of cells was observed
same,Growth of BMS cells,"BMS cells; cells spread over surface of media, 10 mg/l, after 8 days",significant reduction in growth
same,Cell density of BMS cells,"BMS cells; cells spread over surface of media, 30 mg/l, after 8 days",slight increase in cell density
same,Growth of BMS cells,"BMS cells; clumps and cells spread over agar, 30 mg/l plus, after 15 days",notable reduction in growth
same,Growth of BMS cell clumps,"BMS cells; clumps on agar, 10 mg/l, after 8 days",had not outgrown their outline but the height of the clumps had increased
same,Cyanamide concentration with maximum effect on growth,"BMS cells; clumps on agar, after 8 days",50 mg/L
same,Growth of BMS cell clumps,"BMS cells; repeated experiment, 10 mg/l",slight reduction in growth
same,Colour of BMS cell clumps,"BMS cells; repeated experiment, above 50 mg/l",slight orange tinge
same,Growth of BMS cells,"BMS cells; repeated experiment, cells spread over agar or on filters, 10 mg/l",slight growth (approximately doubling of the number of original cells)
same,Growth of BMS cells,"BMS cells; repeated experiment, cells spread over agar or on filters, 20 mg/l and higher",limited of growth
same,Growth of BMS cell clumps,"BMS cells; repeated experiment, from 20 mg/l on",showed no outgrowing from their original outline
same,Speed of shoot regeneration compared with kanamycin,"[1]; PMOG 1156, lower cyanamide concentrations",regeneration of shoots was faster than with kanamycin
same,Regeneration of root explants,"[1]; explants transformed with pMOG 410 (without the cah gene), 20 mg/litre cyanamide",already enough to prevent regeneration
same,Viability of root explants,"[1]; explants transformed with pMOG 410, 50 mg/litre cyanamide and higher",not viable and turned completely brown
same,Callus development of root explants,"[1]; explants transformed with pMOG 410, 20 till 40 mg/litre cyanamide",some callus development was observed
same,Regeneration of root explants,"[1]; explants transformed with the cah gene (PMOG 1156), all cyanamide concentrations, even 80 mg/litre",able to regenerate at all cyanamide concentrations
same,% Shoots rooting,[1]; [2],0%
same,Nr. of plants (shoots developed into plants and able to root),[1]; [2],0
same,% Shoots rooting,[1]; [3],6.3%
same,Nr. of plants (shoots developed into plants and able to root),[1]; [3],4
same,% Shoots rooting,[1]; [4],8.2%
same,Nr. of plants (shoots developed into plants and able to root),[1]; [4],5
same,% Shoots rooting,[1]; [5],8.2%
same,Nr. of plants (shoots developed into plants and able to root),[1]; [5],5
same,% Shoots rooting,[1]; [6],13.8%
same,Nr. of plants (shoots developed into plants and able to root),[1]; [6],9
same,% Shoots rooting,[1]; [7],1.7%
same,Nr. of plants (shoots developed into plants and able to root),[1]; [7],1
same,% Shoots rooting,[1]; [8],3.2%
same,Nr. of plants (shoots developed into plants and able to root),[1]; [8],2
same,% Shoots rooting,[1]; [9],4.5%
same,Nr. of plants (shoots developed into plants and able to root),[1]; [9],3
same,% Shoots rooting,[1]; [10],8.1%
same,Nr. of plants (shoots developed into plants and able to root),[1]; [10],5
same,% Shoots rooting,[1]; [11],15.6%
same,Nr. of plants (shoots developed into plants and able to root),[1]; [11],10
same,% Shoots rooting,[1]; [12],4.8%
same,Nr. of plants (shoots developed into plants and able to root),[1]; [12],3
same,% Shoots rooting,[1]; [13],14.5%
same,Nr. of plants (shoots developed into plants and able to root),[1]; [13],9
same,Nr. of plants (shoots developed into plants and able to root),"[1]; pMOG 1156, Experiment 98-13, selection cyanamide 40 mg/litre, rooting medium same concentration as selection medium",1
same,% Shoots rooting,[1]; [14],0%
same,Nr. of plants (shoots developed into plants and able to root),[1]; [14],0
same,% Shoots rooting,[1]; [15],6.O
same,Nr. of plants (shoots developed into plants and able to root),[1]; [15],4
same,% Shoots rooting,[1]; [16],11.4%
same,Nr. of plants (shoots developed into plants and able to root),[1]; [16],8
same,Percentage of GUS expressing plants (% of plants staining blue),"[1]; pMOG 1156, treatment cyanamide 20 mg/litre, C30 in rooting medium",0^1%
same,Percentage of GUS expressing plants (% of plants staining blue),"[1]; pMOG 1156, treatment cyanamide 20 mg/litre, rooting medium same conc. as treatment",0%
same,Percentage of GUS expressing plants (% of plants staining blue),"[1]; pMOG 1156, treatment cyanamide 30 mg/litre, C30 in rooting medium",75-100%
same,Percentage of GUS expressing plants (% of plants staining blue),"[1]; pMOG 1156, treatment cyanamide 30 mg/litre, rooting medium same conc. as treatment",78%
same,Percentage of GUS expressing plants (% of plants staining blue),"[1]; pMOG 1156, treatment cyanamide 40 mg/litre, C30 in rooting medium",40-100%
same,Percentage of GUS expressing plants (% of plants staining blue),"[1]; pMOG 1156, treatment cyanamide 40 mg/litre, rooting medium same conc. as treatment",100%
same,Percentage of GUS expressing plants (% of plants staining blue),"[1]; pMOG 1156, treatment cyanamide 50 mg/litre, C30 in rooting medium",80%
same,Percentage of GUS expressing plants (% of plants staining blue),"[1]; pMOG 1156, treatment cyanamide 60 mg/litre, C30 in rooting medium",80%
same,Percentage of GUS expressing plants (% of plants staining blue),"[1]; pMOG 1156, treatment cyanamide 60 mg/litre, rooting medium same conc. as treatment",100%
same,Percentage of GUS expressing plants (% of plants staining blue),"[1]; pMOG 1156, treatment cyanamide 80 mg/litre, C30 in rooting medium",67-90%
same,Percentage of GUS expressing plants (% of plants staining blue),"[1]; pMOG 1156, treatment cyanamide 80 mg/litre, rooting medium same conc. as treatment",100%
NC[C@H]1O[C@H](O[C@H]2[C@H](O)[C@@H](O[C@H]3O[C@H](CO)[C@@H](O)[C@H](N)[C@H]3O)[C@H](N)C[C@@H]2N)[C@H](O)[C@@H](O)[C@@H]1O [Kanamycin],Percentage of GUS expressing plants (% of plants staining blue),"[1]; pMOG 410, treatment kanamycin 50 mg/litre, shoots rooted on Kanamycin 25 mg/litre",100^2%
same,% Shoots rooting,[1]; [17],46.8%
same,Nr. of plants (shoots developed into plants and able to root),[1]; [17],29
same,% Shoots rooting,[1]; [18],47.5%
same,Nr. of plants (shoots developed into plants and able to root),[1]; [18],19
same,% Shoots rooting,[1]; [19],20.6%
same,Nr. of plants (shoots developed into plants and able to root),[1]; [19],14
same,Percentage of GUS expressing plants (% of plants staining blue),"[1]; pMOG 1156, treatment kanamycin 50 mg/litre, column headed C30 in rooting medium",82-92%
